According to BigSolDB 2.1:

CCOc1ccc(OCC)cc1
solubility (mole fraction)
Details	278.15 K	283.15 K	288.15 K	293.15 K	298.15 K	303.15 K	308.15 K	313.15 K	318.15 K
in 2-butanone	0.077	0.0958	0.113	0.136	0.169	0.204	0.257	0.31	0.406
in acetone	0.0531	0.0679	0.0839	0.0969	0.12	0.158	0.204	0.263	0.341
in acetonitrile	0.0204	0.0265	0.0372	0.0498	0.0672	0.102	0.141	0.251	0.473
in dimethyl carbonate	0.0243	0.0339	0.0537	0.072	0.0994	0.145	0.193	0.25	0.342
in ethanol	0.00307	0.00646	0.00901	0.0119	0.0155	0.0189	0.0234	0.031	0.043
in ethyl acetate	0.0775	0.0933	0.113	0.145	0.179	0.218	0.264	0.313	0.372
in ethyl lactate	0.0196	0.0305	0.0458	0.0578	0.0738	0.0875	0.109	0.148	0.213
in isobutyl acetate	0.0332	0.045	0.0655	0.0872	0.112	0.145	0.181	0.225	0.281
in methanol	0.00207	0.00338	0.00473	0.00666	0.00924	0.0115	0.0158	0.0212	0.0309
in methyl acetate	0.0544	0.0685	0.0905	0.112	0.145	0.193	0.24	0.29	0.347
in n-butyl acetate	0.0821	0.11	0.142	0.172	0.213	0.254	0.293	0.347	0.432
in n-propyl acetate	0.0586	0.0753	0.0981	0.133	0.165	0.202	0.255	0.313	0.383
